Results on two molecules are retold here after the supplement of paper PMC12076712.

Targets include RABGGTB (UniProt P53611); UniProt Q9Y6E0; CTSA (UniProt P10619); UniProt O75582; MAP4K5 (UniProt Q9Y4K4); TLK2 (UniProt Q86UE8); UniProt P49841; FER (UniProt P16591); FTO (UniProt Q9C0B1); UniProt P27361; UniProt Q15418; RIPK1 (UniProt Q13546); UniProt P36507; UniProt Q02750; CAMK1D (UniProt Q8IU85); LIMK1 (UniProt P53667); CDK5 (UniProt Q00535); UniProt P06493; CDK4 (UniProt P11802); CDK2 (UniProt P24941).

Holding throughout (assay): pIC50, competition of probe 3 labelling in live cells
Details in all cases: cell material: Jurkat cells

For another assay, the target named is T1, UniProt Q13188.
T1 sequence (whole entry): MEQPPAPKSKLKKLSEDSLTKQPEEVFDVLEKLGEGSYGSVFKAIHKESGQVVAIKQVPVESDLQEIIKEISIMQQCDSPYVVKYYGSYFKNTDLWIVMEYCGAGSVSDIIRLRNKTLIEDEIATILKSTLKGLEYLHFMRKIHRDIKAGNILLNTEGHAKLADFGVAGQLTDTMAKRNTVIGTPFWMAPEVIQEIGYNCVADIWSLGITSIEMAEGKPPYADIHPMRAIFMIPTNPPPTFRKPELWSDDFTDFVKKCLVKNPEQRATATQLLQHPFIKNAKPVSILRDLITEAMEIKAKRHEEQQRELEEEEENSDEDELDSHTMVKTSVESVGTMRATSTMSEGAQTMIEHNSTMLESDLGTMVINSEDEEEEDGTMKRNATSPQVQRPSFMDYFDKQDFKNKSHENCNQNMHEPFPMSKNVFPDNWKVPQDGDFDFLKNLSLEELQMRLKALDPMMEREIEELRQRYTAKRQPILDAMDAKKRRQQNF

The target in the next assay is T2, UniProt O43318.
T2 sequence (whole entry): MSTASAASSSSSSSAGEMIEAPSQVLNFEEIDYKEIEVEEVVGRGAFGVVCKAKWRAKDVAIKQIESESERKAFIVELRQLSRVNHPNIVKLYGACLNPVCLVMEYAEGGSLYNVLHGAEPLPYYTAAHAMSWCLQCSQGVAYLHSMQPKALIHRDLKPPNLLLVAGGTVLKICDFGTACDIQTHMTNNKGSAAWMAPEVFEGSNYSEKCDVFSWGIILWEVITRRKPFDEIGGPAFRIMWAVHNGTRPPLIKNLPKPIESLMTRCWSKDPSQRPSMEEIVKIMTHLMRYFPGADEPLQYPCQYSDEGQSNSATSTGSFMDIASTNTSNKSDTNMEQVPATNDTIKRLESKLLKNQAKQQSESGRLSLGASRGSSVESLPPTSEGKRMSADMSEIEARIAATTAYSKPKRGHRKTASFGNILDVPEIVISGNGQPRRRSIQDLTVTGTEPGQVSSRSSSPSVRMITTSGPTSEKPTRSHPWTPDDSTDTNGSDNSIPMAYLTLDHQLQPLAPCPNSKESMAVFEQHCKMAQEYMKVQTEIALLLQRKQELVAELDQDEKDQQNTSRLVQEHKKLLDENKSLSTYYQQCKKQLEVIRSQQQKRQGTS

Another assay concerns the target T3, SGK3 (UniProt Q96BR1).
T3 sequence (whole entry): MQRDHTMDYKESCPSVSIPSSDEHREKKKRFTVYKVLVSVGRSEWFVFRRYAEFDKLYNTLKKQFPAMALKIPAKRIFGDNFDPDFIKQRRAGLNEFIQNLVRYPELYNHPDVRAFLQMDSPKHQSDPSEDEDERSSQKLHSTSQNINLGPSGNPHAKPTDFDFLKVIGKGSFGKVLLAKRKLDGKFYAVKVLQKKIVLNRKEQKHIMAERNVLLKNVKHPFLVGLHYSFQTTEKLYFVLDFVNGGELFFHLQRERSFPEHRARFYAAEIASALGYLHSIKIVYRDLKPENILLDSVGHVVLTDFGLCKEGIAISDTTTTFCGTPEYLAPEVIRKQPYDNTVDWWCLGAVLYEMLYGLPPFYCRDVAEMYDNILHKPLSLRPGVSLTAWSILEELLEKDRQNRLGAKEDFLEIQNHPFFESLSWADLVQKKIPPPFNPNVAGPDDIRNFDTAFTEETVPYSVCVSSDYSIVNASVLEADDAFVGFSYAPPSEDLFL

± gives the standard deviation of the averaged measurements.

Sequence of FER (P16591 whole entry, looked up): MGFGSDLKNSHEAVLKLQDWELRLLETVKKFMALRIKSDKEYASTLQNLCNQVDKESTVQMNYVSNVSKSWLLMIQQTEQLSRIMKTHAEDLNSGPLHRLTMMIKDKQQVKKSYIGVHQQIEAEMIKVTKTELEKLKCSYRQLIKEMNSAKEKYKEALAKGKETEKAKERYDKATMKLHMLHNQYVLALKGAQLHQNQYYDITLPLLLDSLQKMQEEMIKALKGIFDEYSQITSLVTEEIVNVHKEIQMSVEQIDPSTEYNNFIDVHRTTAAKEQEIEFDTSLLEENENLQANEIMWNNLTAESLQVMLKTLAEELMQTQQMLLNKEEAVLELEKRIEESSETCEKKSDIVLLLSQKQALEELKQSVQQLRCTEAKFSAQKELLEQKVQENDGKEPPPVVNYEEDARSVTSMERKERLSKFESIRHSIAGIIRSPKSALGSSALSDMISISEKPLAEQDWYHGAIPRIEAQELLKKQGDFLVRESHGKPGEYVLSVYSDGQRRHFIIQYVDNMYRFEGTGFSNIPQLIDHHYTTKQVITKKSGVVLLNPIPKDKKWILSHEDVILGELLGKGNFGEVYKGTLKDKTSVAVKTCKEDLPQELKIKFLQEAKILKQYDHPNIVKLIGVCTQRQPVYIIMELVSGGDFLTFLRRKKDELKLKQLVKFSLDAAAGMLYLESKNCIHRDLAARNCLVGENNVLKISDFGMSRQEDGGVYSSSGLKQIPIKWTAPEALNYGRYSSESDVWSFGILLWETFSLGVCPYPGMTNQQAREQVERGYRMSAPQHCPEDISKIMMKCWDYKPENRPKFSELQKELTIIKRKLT
Sequence of CDK5 (Q00535 whole entry, looked up): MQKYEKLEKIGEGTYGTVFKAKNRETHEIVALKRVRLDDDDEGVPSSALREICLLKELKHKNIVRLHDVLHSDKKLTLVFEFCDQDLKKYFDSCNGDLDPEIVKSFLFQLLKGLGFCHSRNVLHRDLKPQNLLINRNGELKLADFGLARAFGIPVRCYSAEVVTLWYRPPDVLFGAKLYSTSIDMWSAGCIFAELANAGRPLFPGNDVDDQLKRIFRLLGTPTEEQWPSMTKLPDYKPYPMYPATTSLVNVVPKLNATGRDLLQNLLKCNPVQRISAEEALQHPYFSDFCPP
Sequence of UniProt Q02750 (Q02750 whole entry): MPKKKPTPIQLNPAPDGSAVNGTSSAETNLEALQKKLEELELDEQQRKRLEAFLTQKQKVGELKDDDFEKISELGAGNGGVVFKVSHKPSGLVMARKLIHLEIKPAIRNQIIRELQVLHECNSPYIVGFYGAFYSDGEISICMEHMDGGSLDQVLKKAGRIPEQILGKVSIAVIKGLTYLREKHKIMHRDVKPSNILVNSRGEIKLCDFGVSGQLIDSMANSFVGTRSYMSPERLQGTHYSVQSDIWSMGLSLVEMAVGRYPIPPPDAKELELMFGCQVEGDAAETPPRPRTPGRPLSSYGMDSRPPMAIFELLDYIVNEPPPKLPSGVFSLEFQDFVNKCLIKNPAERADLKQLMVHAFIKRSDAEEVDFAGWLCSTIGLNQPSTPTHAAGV
Sequence of UniProt P49841 (P49841 whole entry, looked up): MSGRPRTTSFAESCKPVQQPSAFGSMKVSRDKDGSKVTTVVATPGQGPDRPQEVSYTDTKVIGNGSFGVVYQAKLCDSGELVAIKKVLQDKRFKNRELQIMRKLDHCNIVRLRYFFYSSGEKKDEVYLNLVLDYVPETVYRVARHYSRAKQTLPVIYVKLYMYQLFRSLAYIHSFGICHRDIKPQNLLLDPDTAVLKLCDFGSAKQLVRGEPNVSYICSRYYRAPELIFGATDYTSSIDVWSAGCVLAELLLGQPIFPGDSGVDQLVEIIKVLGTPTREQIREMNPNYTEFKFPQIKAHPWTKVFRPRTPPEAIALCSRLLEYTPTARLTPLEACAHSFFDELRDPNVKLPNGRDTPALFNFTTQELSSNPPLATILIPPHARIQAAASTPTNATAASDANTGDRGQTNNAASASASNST
Sequence of CAMK1D (Q8IU85 whole entry, looked up): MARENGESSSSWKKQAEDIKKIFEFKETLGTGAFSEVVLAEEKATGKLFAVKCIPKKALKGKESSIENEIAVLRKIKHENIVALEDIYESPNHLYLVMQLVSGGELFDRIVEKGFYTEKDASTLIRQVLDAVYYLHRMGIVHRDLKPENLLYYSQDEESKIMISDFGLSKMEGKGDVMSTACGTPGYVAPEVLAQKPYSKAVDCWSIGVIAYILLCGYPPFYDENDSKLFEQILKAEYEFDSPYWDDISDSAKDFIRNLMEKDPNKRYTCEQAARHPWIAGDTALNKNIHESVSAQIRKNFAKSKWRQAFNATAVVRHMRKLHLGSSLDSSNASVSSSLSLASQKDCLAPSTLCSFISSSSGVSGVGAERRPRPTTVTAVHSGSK
Sequence of FTO (Q9C0B1 whole entry, looked up): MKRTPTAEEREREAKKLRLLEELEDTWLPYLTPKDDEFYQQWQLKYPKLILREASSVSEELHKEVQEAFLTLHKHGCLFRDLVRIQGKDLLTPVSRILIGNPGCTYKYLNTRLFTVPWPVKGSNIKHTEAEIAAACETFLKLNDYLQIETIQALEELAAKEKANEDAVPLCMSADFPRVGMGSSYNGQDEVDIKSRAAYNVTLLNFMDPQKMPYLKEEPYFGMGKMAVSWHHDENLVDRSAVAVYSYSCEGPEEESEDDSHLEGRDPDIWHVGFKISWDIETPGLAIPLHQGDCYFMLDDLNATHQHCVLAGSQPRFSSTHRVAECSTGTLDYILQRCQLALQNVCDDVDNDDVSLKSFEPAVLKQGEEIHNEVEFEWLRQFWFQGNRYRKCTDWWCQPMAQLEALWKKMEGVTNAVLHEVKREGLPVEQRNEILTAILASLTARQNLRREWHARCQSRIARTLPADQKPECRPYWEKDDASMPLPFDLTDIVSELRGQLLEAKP
Sequence of MAP4K5 (Q9Y4K4 whole entry, looked up): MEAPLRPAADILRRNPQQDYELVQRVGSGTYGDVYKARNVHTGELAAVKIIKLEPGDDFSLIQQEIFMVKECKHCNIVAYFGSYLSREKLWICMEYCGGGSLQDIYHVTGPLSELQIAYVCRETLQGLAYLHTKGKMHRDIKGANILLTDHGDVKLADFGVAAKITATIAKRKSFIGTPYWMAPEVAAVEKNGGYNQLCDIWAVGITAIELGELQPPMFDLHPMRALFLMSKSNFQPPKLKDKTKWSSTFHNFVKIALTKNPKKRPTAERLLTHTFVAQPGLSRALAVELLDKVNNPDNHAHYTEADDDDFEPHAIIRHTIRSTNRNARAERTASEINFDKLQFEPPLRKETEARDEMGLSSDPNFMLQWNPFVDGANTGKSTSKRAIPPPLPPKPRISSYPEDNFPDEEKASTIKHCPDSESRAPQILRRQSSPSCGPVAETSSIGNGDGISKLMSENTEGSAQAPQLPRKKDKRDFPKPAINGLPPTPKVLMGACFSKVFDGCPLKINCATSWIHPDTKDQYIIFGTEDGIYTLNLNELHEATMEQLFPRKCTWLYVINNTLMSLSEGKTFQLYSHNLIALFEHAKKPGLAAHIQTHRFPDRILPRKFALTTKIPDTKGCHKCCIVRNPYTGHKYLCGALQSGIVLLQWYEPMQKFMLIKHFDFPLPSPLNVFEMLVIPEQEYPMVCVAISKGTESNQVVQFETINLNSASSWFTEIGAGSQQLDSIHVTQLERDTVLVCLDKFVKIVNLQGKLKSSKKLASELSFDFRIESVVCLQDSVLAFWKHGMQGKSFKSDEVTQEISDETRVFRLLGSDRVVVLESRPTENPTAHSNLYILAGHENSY
Sequence of RABGGTB (P53611 whole entry): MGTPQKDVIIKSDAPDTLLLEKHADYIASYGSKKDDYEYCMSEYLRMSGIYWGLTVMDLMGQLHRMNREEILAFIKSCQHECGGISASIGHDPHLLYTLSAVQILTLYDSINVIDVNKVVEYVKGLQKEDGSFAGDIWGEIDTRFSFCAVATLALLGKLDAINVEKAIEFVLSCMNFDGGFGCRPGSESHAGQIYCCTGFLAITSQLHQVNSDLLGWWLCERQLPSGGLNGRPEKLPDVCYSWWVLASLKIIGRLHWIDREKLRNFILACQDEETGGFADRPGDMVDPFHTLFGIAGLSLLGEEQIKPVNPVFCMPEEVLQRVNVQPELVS
Sequence of UniProt P27361 (P27361 whole entry): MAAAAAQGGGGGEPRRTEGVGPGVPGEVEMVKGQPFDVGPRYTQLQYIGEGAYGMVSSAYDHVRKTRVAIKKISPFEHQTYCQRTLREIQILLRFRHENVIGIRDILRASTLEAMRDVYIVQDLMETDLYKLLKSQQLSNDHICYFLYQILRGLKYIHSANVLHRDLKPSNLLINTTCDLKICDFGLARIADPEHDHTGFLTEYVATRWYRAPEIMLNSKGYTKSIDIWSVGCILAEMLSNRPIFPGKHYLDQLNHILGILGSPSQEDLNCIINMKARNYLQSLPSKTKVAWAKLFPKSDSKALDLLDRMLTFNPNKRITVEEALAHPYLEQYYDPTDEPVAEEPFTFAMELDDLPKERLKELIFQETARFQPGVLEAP
Sequence of UniProt Q9Y6E0 (Q9Y6E0 whole entry, looked up): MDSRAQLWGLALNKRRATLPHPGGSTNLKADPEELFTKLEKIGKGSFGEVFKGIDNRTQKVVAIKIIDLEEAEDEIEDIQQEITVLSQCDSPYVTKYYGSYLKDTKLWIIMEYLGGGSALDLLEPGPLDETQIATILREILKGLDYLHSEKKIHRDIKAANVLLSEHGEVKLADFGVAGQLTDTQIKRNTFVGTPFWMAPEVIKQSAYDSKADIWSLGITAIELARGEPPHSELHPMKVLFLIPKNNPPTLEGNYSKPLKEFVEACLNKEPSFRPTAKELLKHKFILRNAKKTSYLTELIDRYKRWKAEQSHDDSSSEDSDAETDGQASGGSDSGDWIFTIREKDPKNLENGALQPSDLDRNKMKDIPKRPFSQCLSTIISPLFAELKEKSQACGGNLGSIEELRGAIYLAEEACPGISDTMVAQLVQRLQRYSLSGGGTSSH

As a reminder, the pIC50 is the negative decadic logarithm of the IC50, by convention in mol/L. Low readings indicate a high IC50, high ones a low IC50. Regarding `CCc1cnn2c(NCc3ccc[n+]([O-])c3)cc(N3CCCC[C@H]3CCO)nc12` [dinaciclib], the pIC50 at UniProt Q13188, on RABGGTB, on UniProt Q9Y6E0, at CTSA, on UniProt O75582 and at MAP4K5 was less than 4.52 in each case. Moreover, the pIC50 was less than 4.52 on TLK2; 4.85 ± 0.27 at UniProt P49841; less than 4.52 on UniProt O43318; less than 4.52 at FER; less than 4.52 at FTO; less than 4.52 on SGK3. Also, the pIC50 on UniProt P27361 and at UniProt Q15418 was less than 4.52 each time.

Regarding `CC#CC(=O)Nc1ccc2ncnc(Nc3cccc(Br)c3)c2c1` [EKI-785], the pIC50 at RIPK1, at UniProt P36507, at UniProt Q02750, at CAMK1D, on LIMK1 and at CDK5 was less than 4.52 each time. The pIC50 at UniProt P06493, on CDK4 and at CDK2 was less than 4.52 each time.
